Assay results reported in paper PMC3199744, “Preformulation and stability in biological fluids of the retrocyclin RC-101, a potential anti-HIV topical microbicide” (AIDS Research and Therapy, 2011).

Key:
Assay type in all cases: physicochemical
[1] = RC-101 solution / film control in water, detection by LC-MS/MS; details: 1:1 with water, 37°C, nanoLC-SRM MS, qualitative
Experimental: RC-101 100 μg/mL solutions were prepared by dissolving RC-101 in Milli Q water. RC-101 and placebo films were prepared by precasting a polymeric film solution into an 8-well-plate. The polymeric film solution was prepared as previously described by adding Milli Q water, PVA, and hydroxypropyl methyl cellulose (HPMC). The solution was then heated at 95°C for 20 minutes for complete dissolution of the polymers. After cooling, glycerin and RC-101 were added. Film solution (2.4 g) containing RC-101 was poured into each well of the 8-well plate. The plate was placed into a vacuum oven at 30 ± 2°C for 20 ± 4 h. All dried films were removed from the plates and stored at room temperature in PET/Aluminum foil pouches (Amcor Flexibles Healthcare Inc, Mundelein, IL) until further analysis. Placebo films were prepared in the same way without the addition of RC-101. […] For analytical purposes, films were dissolved in 1 mL of Milli Q water before addition to HVF.
The HVF from the Instead Softcup® was removed by centrifugation of the conical tube for 10 min at 5,000 rpm. […] HVF was then removed from the cup and the pH of each HVF sample was measured with Fisher Alkacid pH filter strips (Fisher Scientific). All samples collected on a specific day were pooled to be used for the research studies. If the pH of the individual samples was higher than 5, the sample was not included in the pool but it was stored at -80°C for separate analysis. If the sample contained blood, it was immediately discarded. Samples were prepared as described in Table 1. […] Because of its high viscosity, HVF was measured by weight and not by volume. All solutions were prepared fresh and incubated with HVF (or water) at 37°C for specific periods of time (0, 2, 6, 12, 24, 48, and 72 h), unless specified otherwise. At each time point, the samples were centrifuged at 10,000 rpm for 10 min to separate the supernatant from the epithelial cells as described in the cell processing section. Both parts (supernatant and cells) were stored at -80 ± C until analyzed by LC-MS/MS. To evaluate the influence of freezing the fluid prior to the analysis, the last pool of HVF was divided into two samples: one used fresh (at the time of collection), and the other one stored at -80°C for a 3-month period. After that time period, HVF was thawed and processed for blank and RC-101 solution only, as described in Table 1. HVF samples collected with a high pH value indicative of BV were stored at -80°C as previously mentioned. After confirmation of BV on those fluid samples by Gram stain score, the fluid samples (HVF BV^+) were thawed, pooled, and processed as described in Table 1.
At each time point, the sample was removed from the incubation chamber and centrifuged for 10 min at 10,000 rpm, at 4 ± C to separate the supernatant from cell pellet. Supernatant (100 μL) was added to microcentrifuge filters Ultracel YM-10 Microcon MWCO 10,000 (Millipore Corporation, Bedford, MA), which were pre-washed with Milli Q water to eliminate any trace of propylene glycol from the filters. Samples were centrifuged twice for 15 min at 8,500 rpm, at 4 ± C. The filtrate was collected and frozen at -80 ± C until further analysis. A solution of 3 M urea was added to the cell pellet (1:1 w/w) obtained from the first centrifugation, to lyse the cells. This mixture was vortexed three times for 30 sec, and then centrifuged for 10 min at 10,000 rpm, at 4 ± C. The supernatant obtained from the cell lysate was then added to microcentrifuge filters Ultracel YM-10 Microcon MWCO 10,000 pre-washed with Milli Q water. Samples were centrifuged twice for 15 min at 8,500 rpm, at 4 ± C. The filtrate was collected and frozen at -80 ± C until analysis.

[2] = Effect of pH on stability of RC-101, HPLC; details: 500 μg/mL, HPLC-UV
Experimental: For all pre-formulation studies described below, triplicate solutions of RC-101 (500 μg/mL) were prepared in either water or aqueous buffer solution. Thermal degradation studies were conducted at 25, 37, and 65°C for a minimum period of 1 week. The effect of pH on the stability of RC-101 was evaluated over the pH range from 3 to 12 using 10 mM phosphate buffer solutions, at low (50 mmol/kg) and high (500 mmol/kg) ionic strength. Oxidation of RC-101 was evaluated by exposing a solution of RC-101 to hydrogen peroxide (H2O2) at concentrations of 3.0, 0.08, and 0.002% (v/v). The high H2O2 concentration (3.0%) was selected as a forced degradation concentration. […] Protection against oxidation was investigated by the addition of antioxidants commonly used in pharmaceutical products. The antioxidants used in this study were: methionine (95.2 μg/mL or 250 μg/mL), cysteine (95.2 μg/mL), glutathione (90.9 μg/mL), vitamin E TPGS (90.9 μg/mL), ascorbic acid (1.0 mg/mL), sodium ascorbate (1.0 mg/mL), and EDTA (1.0 μg/mL).
RC-101 concentration after exposure to preformulation conditions was analyzed by HPLC as previously described [11]. Briefly, the HPLC system (Waters Corporation, Milford, MA) was equipped with an autoinjector model 717, a quaternary pump model 600, and an ultraviolet (UV) detector model 2487 set up at 215 nm. Separation of RC-101 from degradant products was achieved using a Phenomenex Jupiter 5 μC5 300 Å (4.6 × 250 mm) column (Phenomenex, Torrance, CA) protected by a Widepore C5 (4 × 3.0 mm) guard cartridge (Phenomenex). The gradient consisted of mobile phase A (0.1% TFA in water (v/v)), and mobile phase B (0.07% TFA in acetonitrile (v/v)) pumped at a flow rate of 1.0 mL/min. Forced degraded samples (oxidation, temperature, and basic and acidic hydrolysis) were used to establish that the method could separate the degradants from the main peak.
HPLC data obtained from the preformulation studies were expressed as the average percentage of the peak area from time 0 ± standard deviation, n = 3. Results were analyzed by one-way analysis of variance (ANOVA) with multiple comparisons of individual time points by using post hoc Bonferroni correction to detect significant differences under different conditions. P-values ≤ 0.05 were considered to be statistically significant, unless specified otherwise.

[3] = UV spectroscopy for aggregation / ionic strength effect
Experimental: Changes in the secondary structure of the protein were monitored by Circular dichroism (CD) on an AVIV Circular Dichroism spectrophotometer model 202 (AVIV Biomedical, Lakewood, NJ) equipped with a 0.1 cm path length quartz cell. RC-101 stability was also monitored by using a matrix-assisted laser desorption ionization-time of flight (MALDI-TOF) mass spectrometric (MS) on a Voyager DE-PRO mass spectrometer (Applied Biosystems, Foster City, CA). Potential for aggregation was evaluated by UV-spectroscopy using a NanoDrop ND-1000 spectrophotometer (NanoDrop Technologies Inc, Wilmington, DE).

GICRCICGKGICRCICGR (bicyclic or more) [RC-101, cationic retrocyclin analog; circular 18-residue tetracyclic peptide with three cysteine disulfide bonds]
detection of RC-101 by LC-MS/MS ([1]; 0 h): +
detection of RC-101 by LC-MS/MS ([1]; 2 h): +
detection of RC-101 by LC-MS/MS ([1]; 6 h): +
detection of RC-101 by LC-MS/MS ([1]; 12 h): +
detection of RC-101 by LC-MS/MS ([1]; 24 h): +
detection of RC-101 by LC-MS/MS ([1]; 48 h): +
detection of RC-101 by LC-MS/MS ([1]; 72 h): +
change in RC-101 concentration over time (HPLC) ([2]; pH 3, 10 mM phosphate buffer, 10 days, n = 3, p > 0.83): no statistically significant decrease
change in RC-101 concentration over time (HPLC) ([2]; pH 4, 10 mM phosphate buffer, 10 days, n = 3, p > 0.83): no statistically significant decrease
change in RC-101 concentration over time (HPLC) ([2]; pH 7, 10 mM phosphate buffer, 10 days, n = 3, p > 0.83): no statistically significant decrease
change in RC-101 concentration over time (HPLC) ([2]; pH 12, 10 mM phosphate buffer, first 2 h, n = 3): significant decrease
aggregation (increase in UV absorbance 300 to 600 nm) ([3]; 500 μg/mL, phosphate buffer pH 12, UV scan (data not shown)): presence of aggregates
stability profile with high ionic strength buffers ([3]; UV spectroscopy, pH 4 and 7, high ionic strength (500 mmol/kg) phosphate buffers): did not show any significant differences
